Experimental data: US7741040B2, “Methods and compositions for detecting cancers” (Case Western Reserve University, priority 2002, dated 2010)

Tested on: SLC5A8 silenced colon cancer cell lines
Experiment: RT-PCR detection of SLC5A8 transcript after 5-azacytidine treatment
Type: cell-based, human
Details: 5-azacytidine 1.5 μg/ml, 24 h on day 2 and day 5
Protocol: Amplification and Sequencing of SLC5A8. The primers used for RT-PCR assay of a SLC5A8 fragment are 5′-TCCGAGGTCTACCGTTTTG-3′, and 5′-GGGCA GGGGC ATAAA TAAC-3′. The PCR parameters were 35 cycles of 95° C. (45s), 54° C. (45s), 72° C. (60s), 72° C. (10 min), and 4° C. to cool. The full length SLC5A8 ORF was amplified using primers: 5′TCCGGGATAAGAAGTGCG-3′ and 5′-[…]-3′. GC-rich cDNA polymerase kit (Clonetech) was used and PCR parameters were 35 cycles of 95° C. (45s), 62° C. (45s), 72° C. (90s), 72° C. (10 min), and 4° C. to cool. Sequencing primers were: 5′-TTTGT GGTGGTCA TCAGCG-3′,5′-GGGCAGGGGCATAAATAAC-3′,5′-AGGCTGTG GTGATGCAAGGT-3′,5′-TTAATGCCTTAGCAGCAG-3′, and 5′-CCTCCACTT CCTGAGAGAAC-3′.
5-Azacytidine Treatment. The treatment was performed as described previously (Veigl et al., 1998, Proc Natl Acad Sci USA 95: 8698-8702). Briefly, cells were treated for 24 h on day 2 and day 5 with 5-azacytidine (Sigma) at 1.5 μg/ml. The medium was changed 24 h after addition of the 5-azacytidine (i.e., on day 3 and day 6).

With `Nc1ncn([C@@H]2O[C@H](CO)[C@@H](O)[C@H]2O)c(=O)n1` [5-azacytidine] the “reactivation of SLC5A8 expression (cell lines reactivated of cell lines tested)” value was 6 of 8.
